Values of other authors as cited in US20250127900A1, “STABLE PHARMACEUTICAL COMPOSITIONS” (MANKIND PHARMA LTD., priority 2021, published 2025).

Tests used:
[1] = for Acceptable intake, EMA: EMA limit; for Acceptable intake, FDA: FDA limit
[2] = in vivo

Row | SMILES | Acceptable intake, EMA [1] | Acceptable intake, FDA [1] | LD50 [2]
1 | CCN(CC)N=O [N-Nitrosodiethylamine] | 26.5 ng/day | 26.5 ng/day | –
2 | CC(C)N(N=O)C(C)C [N-Nitrosodiisopropylamine] | 26.5 ng/day | 26.5 ng/day | –
3 | CN(C)N=O [N-Nitrosodimethylamine] | 96 ng/day | 96 ng/day | 10 mg/kg
